10 compounds from patent US12427212B2, “Nectin-4 binding miniproteins, conjugates and uses thereof” (Aktis Oncology, Inc., priority 2023, dated 2025) can be followed below.

Bridges are numbered along the chain shown (N, C = ends). [ ]: non-standard residue; d: D form. The star is where a group is joined. DOTA = O=C(O)CN1CCN(CC(=O)O)CCN(CC(=O)*)CCN(CC(=O)O)CC1; Biotin = O=C1N[C@H]2[C@H](CS[C@H]2CCCCC(=O)*)N1; Lys(Me3) = C[N+](C)(C)CCCC[C@H](N)C(=O)O; Cit = NC(=O)NCCC[C@H](N)C(=O)O; PEG4 = NCCOCCOCCOCCOCCC(=O)O

For the first series, the system named is un-transfected HEK293 cells. Kind of series: Background binding to un-transfected HEK293 cells (cell microarray suitability). Format: cell-based, human. To be noted: biotin-labeled molecules. Here is the method: To evaluate potential off-target binding, six biotin-labeled molecules were tested in a cell microarray platform having 6,416 different human proteins spanning diverse functions and subcellular locations.
In the case of “{Biotin-PEG4}-CDYDEQFFTALA[Cit]LRGGDICEYIQA[Lys(Me3)]FQYLPGLCIEEILDNLGCS-OH (disulfide 1-34, 20-44) [Compound C259]”, the “Background binding to un-transfected HEK293 cells” value (“Background binding” below) is recorded as “low-background binding”.

For `CC[C@H](C)[C@@H]1NC(=O)[C@H](Cc2ccc(O)cc2)NC(=O)[C@H](CCC(=O)O)NC(=O)[C@@H]2CSSC[C@@H](C(=O)N[C@@H](CO)C(=O)O)NC(=O)CNC(=O)[C@H](CC(C)C)NC(=O)[C@H](CC(N)=O)NC(=O)[C@H](CC(=O)O)NC(=O)[C@H](CC(C)C)NC(=O)[C@H]([C@@H](C)CC)NC(=O)[C@H](CCC(=O)O)NC(=O)[C@H](CCC(=O)O)NC(=O)[C@H]([C@@H](C)CC)NC(=O)[C@H](CSSC[C@H](NC(=O)CCOCCOCCOCCOCCNC(=O)CCCC[C@@H]3SC[C@@H]4NC(=O)N[C@@H]43)C(=O)N[C@@H](CC(=O)O)C(=O)N[C@@H](Cc3ccc(O)cc3)C(=O)N[C@@H](CC(=O)O)C(=O)N[C@@H](CCC(=O)O)C(=O)N[C@@H](CCC(N)=O)C(=O)N[C@@H](Cc3ccccc3)C(=O)N[C@@H](Cc3ccccc3)C(=O)N[C@@H]([C@@H](C)O)C(=O)N[C@@H](C)C(=O)N[C@@H](CC(C)C)C(=O)N[C@@H](CCCCN)C(=O)N[C@@H](CCCNC(=N)N)C(=O)N[C@@H](CC(C)C)C(=O)N[C@@H](CCCNC(=N)N)C(=O)NCC(=O)N[C@@H](C)C(=O)N[C@@H](CC(=O)O)C(=O)N[C@@H]([C@@H](C)CC)C(=O)N2)NC(=O)[C@H](CCC(=O)O)NC(=O)CNC(=O)[C@@H]2CCCN2C(=O)[C@H](CC(C)C)NC(=O)[C@H](Cc2ccc(O)cc2)NC(=O)[C@H](CCC(N)=O)NC(=O)[C@H](Cc2ccccc2)NC(=O)[C@H](CO)NC(=O)[C@H](C)NC(=O)[C@H](CCC(N)=O)NC1=O` [Compound C208], the “Background binding” value is “low-background binding”.

On to `CC[C@H](C)[C@@H]1NC(=O)[C@H](Cc2ccc(O)cc2)NC(=O)[C@H](CCC(=O)O)NC(=O)[C@@H]2CSSC[C@@H](C(=O)N[C@@H](CO)C(=O)O)NC(=O)CNC(=O)[C@H](CC(C)C)NC(=O)[C@H](CC(N)=O)NC(=O)[C@H](CC(=O)O)NC(=O)[C@H](CC(C)C)NC(=O)[C@H]([C@@H](C)CC)NC(=O)[C@H](CCC(=O)O)NC(=O)[C@H](CCC(=O)O)NC(=O)[C@H]([C@@H](C)CC)NC(=O)[C@H](CSSC[C@H](NC(=O)CCOCCOCCOCCOCCNC(=O)CCCC[C@@H]3SC[C@@H]4NC(=O)N[C@@H]43)C(=O)N[C@@H](CC(=O)O)C(=O)N[C@@H](Cc3ccc(O)cc3)C(=O)N[C@@H](CC(=O)O)C(=O)N[C@@H](CCC(=O)O)C(=O)N[C@@H](CCC(N)=O)C(=O)N[C@@H](Cc3ccccc3)C(=O)N[C@@H](Cc3ccccc3)C(=O)N[C@@H]([C@@H](C)O)C(=O)N[C@@H](C)C(=O)N[C@@H](CC(C)C)C(=O)N[C@@H](C)C(=O)N[C@@H](CCCNC(=N)N)C(=O)N[C@@H](CC(C)C)C(=O)N[C@@H](CCCNC(=N)N)C(=O)NCC(=O)N[C@@H](C)C(=O)N[C@@H](CC(=O)O)C(=O)N[C@@H]([C@@H](C)CC)C(=O)N2)NC(=O)[C@H](CCC(=O)O)NC(=O)CNC(=O)[C@@H]2CCCN2C(=O)[C@H](CC(C)C)NC(=O)[C@H](Cc2ccc(O)cc2)NC(=O)[C@H](CCC(N)=O)NC(=O)[C@H](Cc2ccccc2)NC(=O)[C@H](CO)NC(=O)[C@H](C)NC(=O)[C@H](CCC(N)=O)NC1=O` [Compound C247], for which the “Background binding” value was “low-background binding”.

Turning to `CC[C@H](C)[C@@H]1NC(=O)[C@H](Cc2ccc(O)cc2)NC(=O)[C@H](CC(=O)O)NC(=O)[C@@H]2CSSC[C@@H](C(=O)N[C@@H](CO)C(=O)O)NC(=O)CNC(=O)[C@H](CC(C)C)NC(=O)[C@H](CC(N)=O)NC(=O)[C@H](CC(=O)O)NC(=O)[C@H](CC(C)C)NC(=O)[C@H]([C@@H](C)CC)NC(=O)[C@H](CCC(=O)O)NC(=O)[C@H](CCC(=O)O)NC(=O)[C@H]([C@@H](C)CC)NC(=O)[C@H](CSSC[C@H](NC(=O)CCOCCOCCOCCOCCNC(=O)CCCC[C@@H]3SC[C@@H]4NC(=O)N[C@@H]43)C(=O)N[C@@H](CCC(=O)O)C(=O)N[C@@H](Cc3ccc(O)cc3)C(=O)N[C@@H](CC(=O)O)C(=O)N[C@@H](CCC(=O)O)C(=O)N[C@@H](CCC(N)=O)C(=O)N[C@@H](Cc3ccccc3)C(=O)N[C@@H](Cc3ccccc3)C(=O)N[C@@H]([C@@H](C)O)C(=O)N[C@@H](C)C(=O)N[C@@H](CC(C)C)C(=O)N[C@@H](CCCCN)C(=O)N[C@@H](CCCNC(=N)N)C(=O)N[C@@H](CC(C)C)C(=O)N[C@@H](CCCNC(=N)N)C(=O)NCC(=O)N[C@@H](CC(=O)O)C(=O)N[C@@H](CC(=O)O)C(=O)N[C@@H]([C@@H](C)CC)C(=O)N2)NC(=O)[C@H](CC(C)C)NC(=O)CNC(=O)[C@@H]2CCCN2C(=O)[C@H](CC(C)C)NC(=O)[C@H](Cc2ccc(O)cc2)NC(=O)[C@H](CCC(N)=O)NC(=O)[C@H](Cc2ccccc2)NC(=O)[C@H](CO)NC(=O)[C@H](C)NC(=O)[C@H](CCC(N)=O)NC1=O` [Compound C197], the “Background binding” value was “low-background binding”.

Tested on in the next series: not listed separately
Kind of series: in vivo. Particulars: Sprague Dawley, rat, iv. Here is the method:
To begin, double jugular vein-cannulated Sprague Dawley rats were dosed with bolus intravenous injections of miniproteins (0.03-0.3 mg/kg) and FITC-sinistrin. Nine blood collection timepoints were taken from 0-2 h, processed to plasma with K2 EDTA, and were frozen for subsequent bioanalysis. Plasma miniprotein concentrations were measured by LC-MS/MS. To control for inter-animal renal clearance differences, and to compare with glomerular filtration rate (GFR), the miniprotein was co-formulated with a molecular marker of GFR, FITC-sinistrin (FS) (Pill et al., 2005). Plasma FITC-sinistrin was measured fluorometrically. All unknown sample measurements were interpolated against known authentic standards spiked into normal rat plasma to calculate concentration. Finally, non-compartmental analysis was performed to estimate plasma pharmacokinetic parameters.
As for “{DOTA-PEG4}-CEYDEQFFTALARLRGGDICEYIQAKFQYLPGLCIEEILDNLGCS-OH (disulfide 1-34, 20-44) [Compound C219]”, the half-life – broadly, the time needed for the level to fall by half in the phase considered – was 25.4 min.

In turn, “{DOTA-PEG4}-CDYDEQFFTALA[Cit]LRGGDICEYIQA[Lys(Me3)]FQYLPGLCIEEILDNLGCS-OH (disulfide 1-34, 20-44 (inferred)) [Compound C261]” registered a half-life of 28.7 min.

`CC[C@H](C)[C@@H]1NC(=O)[C@H](Cc2ccc(O)cc2)NC(=O)[C@H](CC(=O)O)NC(=O)[C@@H]2CSSC[C@@H](C(=O)N[C@@H](CO)C(=O)O)NC(=O)CNC(=O)[C@H](CC(C)C)NC(=O)[C@H](CC(N)=O)NC(=O)[C@H](CC(=O)O)NC(=O)[C@H](CC(C)C)NC(=O)[C@H]([C@@H](C)CC)NC(=O)[C@H](CCC(=O)O)NC(=O)[C@H](CCC(=O)O)NC(=O)[C@H]([C@@H](C)CC)NC(=O)[C@H](CSSC[C@H](NC(=O)CCOCCOCCOCCOCCNC(=O)CN3CCN(CC(=O)O)CCN(CC(=O)O)CCN(CC(=O)O)CC3)C(=O)N[C@@H](CCC(=O)O)C(=O)N[C@@H](Cc3ccc(O)cc3)C(=O)N[C@@H](CC(=O)O)C(=O)N[C@@H](CCC(=O)O)C(=O)N[C@@H](CCC(N)=O)C(=O)N[C@@H](Cc3ccccc3)C(=O)N[C@@H](Cc3ccccc3)C(=O)N[C@@H]([C@@H](C)O)C(=O)N[C@@H](C)C(=O)N[C@@H](CC(C)C)C(=O)N[C@@H](CCCCN)C(=O)N[C@@H](CCCNC(=N)N)C(=O)N[C@@H](CC(C)C)C(=O)N[C@@H](CCCNC(=N)N)C(=O)NCC(=O)N[C@@H](CC(=O)O)C(=O)N[C@@H](CC(=O)O)C(=O)N[C@@H]([C@@H](C)CC)C(=O)N2)NC(=O)[C@H](CC(C)C)NC(=O)CNC(=O)[C@@H]2CCCN2C(=O)[C@H](CC(C)C)NC(=O)[C@H](Cc2ccc(O)cc2)NC(=O)[C@H](CCC(N)=O)NC(=O)[C@H](Cc2ccccc2)NC(=O)[C@H](CO)NC(=O)[C@H](C)NC(=O)[C@H](CCC(N)=O)NC1=O` [Compound C237]: the half-life stood at 28.4 min.

“{DOTA-PEG4}-CEYDEEFFTALKRLRGGDICYYIQAKFQYLPKLCIEEILDNLGCS-OH (disulfide 1-34, 20-44) [Compound C118]” returned a half-life of 19.7 min.

Turning to `CC[C@H](C)[C@@H]1NC(=O)[C@H](Cc2ccc(O)cc2)NC(=O)[C@H](CCC(=O)O)NC(=O)[C@@H]2CSSC[C@@H](C(=O)N[C@@H](CO)C(=O)O)NC(=O)CNC(=O)[C@H](CC(C)C)NC(=O)[C@H](CC(N)=O)NC(=O)[C@H](CC(=O)O)NC(=O)[C@H](CC(C)C)NC(=O)[C@H]([C@@H](C)CC)NC(=O)[C@H](CCC(=O)O)NC(=O)[C@H](CCC(=O)O)NC(=O)[C@H]([C@@H](C)CC)NC(=O)[C@H](CSSC[C@H](NC(=O)CCOCCOCCOCCOCCNC(=O)CN3CCN(CC(=O)O)CCN(CC(=O)O)CCN(CC(=O)O)CC3)C(=O)N[C@@H](CC(=O)O)C(=O)N[C@@H](Cc3ccc(O)cc3)C(=O)N[C@@H](CC(=O)O)C(=O)N[C@@H](CCC(=O)O)C(=O)N[C@@H](CCC(N)=O)C(=O)N[C@@H](Cc3ccccc3)C(=O)N[C@@H](Cc3ccccc3)C(=O)N[C@@H]([C@@H](C)O)C(=O)N[C@@H](C)C(=O)N[C@@H](CC(C)C)C(=O)N[C@@H](CCCCN)C(=O)N[C@@H](CCCNC(=N)N)C(=O)N[C@@H](CC(C)C)C(=O)N[C@@H](CCCNC(=N)N)C(=O)NCC(=O)N[C@@H](C)C(=O)N[C@@H](CC(=O)O)C(=O)N[C@@H]([C@@H](C)CC)C(=O)N2)NC(=O)[C@H](CCC(=O)O)NC(=O)CNC(=O)[C@@H]2CCCN2C(=O)[C@H](CC(C)C)NC(=O)[C@H](Cc2ccc(O)cc2)NC(=O)[C@H](CCC(N)=O)NC(=O)[C@H](Cc2ccccc2)NC(=O)[C@H](CO)NC(=O)[C@H](C)NC(=O)[C@H](CCC(N)=O)NC1=O` [Compound C270], the half-life turned out to be 28.3 min. This half-life and that of the compound before are within 1.5-fold of each other.

“{DOTA-PEG4}-CEYDEQFFTALKALRGGDICYYIQASFNYLPDLCIEEILDNLGCS-OH (disulfide 1-34, 20-44 (inferred)) [Compound C114]”: the half-life was found to be 25.5 min.
